# According to paper PMC5717258, “Bioaccumulation of pharmaceuticals and personal care product chemicals in fish exposed to wastewater effluent in an urban wetland” (Scientific Reports, 2017):
# Read-outs that look alike come from different tables or passages of the source.
# How the values were obtained:
# [1] = Method: (§1) Plasma from 9 individual male fish (500 µL/individual) was pooled to yield 3 samples for PPCP analysis. […] Plasma from 6 individual carp (2.3–3.5 g) from each location was selected for PPCP analysis. […] Plasma samples were frozen (−80 °C) until analysis.
# (§2) A total of 20 fish plasma samples from the pooled caged fish (7) and the wild fish (13) along with 12 water samples were selected for analysis. […] A full list of analytes is provided in Supplementary Information. Mass labelled^13C-, or deuterated surrogate internal standards were used for quantification of all analytes via the isotope dilution/surrogate standard quantitation method. Prior to extraction and/or clean-up procedures, aqueous samples were adjusted to pH 2.0, spiked with extraction surrogate standards, then adjusted to pH 4 using tetrasodium ethylenediamine-tetraacetate dihydrate. Plasma samples (2.3–2.5 g) were spiked with extraction surrogate standards, sonicated with 20 mL acetonitrile, then diluted with ultra-pure water to 200 mL. The extracts were cleaned up by solid phase extraction using Oasis HLB cartridges (Waters Ltd. Mississauga ON), filtered, and analyzed by liquid chromatography-electrospray ionization-tandem mass spectrometry (LC/ESI-MS/MS) in positive or negative ionization mode. The analysis of the complete list of analytes (SI Table S1) required a total of five instrumental runs.
# (§3) Quality assurance steps included analysis of lab blanks for water and plasma along with matrix recovery spikes. […] Detection limits (DLs) were defined as lowest calibration level adjusted to the maximal sample size or 3 times the signal of the noise in the target channel converted to an equivalent sample, whichever was greater. […] Where analytes were detected in two or more samples of the same species or series of water samples, non-detect values were converted to ½ the DL value for reporting purposes.
# [2] = remark: listed apart in the source
# Method: as §1, §2
# [3] = Table S7; ref Meador et al. (2016); cited from earlier work
# [4] = Table S7; ref Meador et al. (2016); cited from earlier work; remark: listed apart in the source
# [5] = in vivo; settings: goldfish (Carassius auratus), in vivo
# Source text: Cages were visited weekly, and fish (13/cage) were fed during the visits (20 g/cage). All animal experiments were in accordance with CCAC guidance and approved by the GLLFAS-WSTD Animal Care Committee (Government of Canada). Further details on the caging and preparation of the fish and animal care protocols are provided in Simmons et al.[32]. […] A fourth site, Jordan Harbour (JH), a widening of 20 Mile Creek adjacent to Lake Ontario near Jordan ON, served as a reference site. Mass and fork length were measured and recorded. Plasma collection and storage is described in the SI. Plasma of caged goldfish was divided for proteome, metabolome and PPCP analysis. Due to limited volumes, pooled samples of plasma from 25 individual fish (50 µL/individual) was pooled to yield one sample from at each location for PPCP analysis.
# as §2, §3
# [6] = Plasma bioaccumulation factor (BAFP), goldfish; assay type: in vivo, goldfish (Carassius auratus); settings: CPM2; water sample of August 2012
# Method: Bioaccumulation factor (BAFP) was calculated as concentration in fish plasma (ng/g × 1000) divided by concentration in water (ng/L). Two widely used modeling approaches for predicting organic contaminant bioaccumulation were assessed: the BCF-BAF model for whole body BAFs[53] and the fish-plasma concentration calculation of Huggett et al.[35] modified by Berninger et al.[54]. The latter involves estimating an octanol-water partition coefficient (Kow) adjusted for fraction ionized (log D), using the pKa value to adjust log Kow[54] taking into account the pH of CPM waters. Further information on the calculation of log D, blood-water partitioning (PBW), and plasma concentrations (FPC) is given in the SI.
# [7] = Jordan Harbour carp 54, Nov 7, 2011, male, wet weight
# [8] = Jordan Harbour carp 73, Nov 7, 2011, female, wet weight
# [9] = Jordan Harbour carp 74, Nov 7, 2011, male, wet weight
# [10] = Jordan Harbour carp 75, Nov 7, 2011, female, wet weight
# [11] = Jordan Harbour carp 78, Nov 7, 2011, male, wet weight
# [12] = Jordan Harbour carp 82, Nov 7, 2011, female, wet weight
# [13] = Jordan Harbour brown bullhead, wet weight
# [14] = carp (Cyprinus carpio), in vivo
# [15] = female, carp (Cyprinus carpio), in vivo
# [16] = male, carp (Cyprinus carpio), in vivo
# [17] = male, goldfish (Carassius auratus), in vivo
smiles,measurement,setting,value
CC(C(=O)O)c1ccc(CC(C)(C)O)cc1 (stereo not drawn) [2-Hydroxy-ibuprofen],"plasma concentration, CPM-C 01","[1]; Cootes carp 01, 2011, male, wet weight",< 16.9 ng/g
same,"plasma concentration, CPM-C 2","[1]; Cootes carp 2, Sep 27, 2011, male, wet weight",< 23 ng/g
same,"plasma concentration, CPM-C 10","[1]; Cootes carp 10, Sep 28, 2011, female, wet weight",< 24.2 ng/g
same,"plasma concentration, CPM-C 13","[1]; Cootes carp 13, Sep 28, 2011, female, wet weight",< 24.9 ng/g
same,"plasma concentration, CPM-C 20","[1]; Cootes carp 20, 2011, male, wet weight",< 17.2 ng/g
same,"plasma concentration, CPM-C 36","[1]; Cootes carp 36, Oct 3, 2011, female, wet weight",< 22.9 ng/g
same,"plasma concentration, JH-C 54",[1]; [7],< 16.9 ng/g
same,"plasma concentration, JH-C 73",[1]; [8],< 16.5 ng/g
same,"plasma concentration, JH-C 74",[1]; [9],< 17 ng/g
same,"plasma concentration, JH-C 75",[1]; [10],< 24.1 ng/g
same,"plasma concentration, JH-C 78",[1]; [11],< 38.5 ng/g
same,"plasma concentration, JH-C 82",[1]; [12],17 ng/g
same,"plasma concentration, JH-BB",[2]; [13],< 30.4 ng/g
Cn1c(=O)c2c(ncn2C)n(C)c1=O [Caffeine],"plasma concentration, JH-C 54",[1]; [7],< 3.18 ng/g
same,"plasma concentration, JH-C 73",[1]; [8],< 3.09 ng/g
same,"plasma concentration, JH-C 74",[1]; [9],< 3.19 ng/g
same,"plasma concentration, JH-C 75",[1]; [10],< 4.52 ng/g
same,"plasma concentration, JH-C 78",[1]; [11],< 3.13 ng/g
same,"plasma concentration, JH-C 82",[1]; [12],< 3.01 ng/g
same,"plasma concentration, CPM wild-02","[1]; wild goldfish sample 02, 2012, wet weight",1.525 ng/g
same,"plasma concentration, CPM wild-03","[1]; wild goldfish sample 03, 2012, wet weight",1.565 ng/g
same,Sculpin (whole body) concentration,[3],13 ng/g
same,"plasma concentration, JH-BB",[2]; [13],< 5.7 ng/g
same,Salmon (whole body) concentration,[4],18 ng/g
same,concentration at 21 days,"[5]; plasma concentration, CPM1 caged, CPM1, 07-2014, pooled plasma, wet weight",3.38 ng/g
same,concentration at 21 days,"[5]; plasma concentration, CPM2 caged, CPM2, 07-2014, pooled plasma, wet weight",1.46 ng/g
same,concentration at 21 days,"[5]; plasma concentration, CPM3 caged, CPM3, 07-2014, pooled plasma, wet weight",1.53 ng/g
same,concentration at 21 days,"[5]; plasma concentration, JH caged, Jordan Harbour reference site, 07-2014, pooled plasma, wet weight",< 3 ng/g
CC1CCc2cc(F)cc3c(=O)c(C(=O)O)cn1c23 (stereo not drawn) [Flumequine],"Cootes carp plasma, range of concentrations",[1]; [14],0.16 to 1.23 ng/g
same,"plasma concentration, carp, this study (mean)",[1]; [14],0.70 ng/g wet weight or ng/mL for plasma
same,"plasma concentration, CPM-C 10",[1]; [15],1.23 ng/g
same,"plasma concentration, CPM-C 13",[1]; [15],1.14 ng/g
same,"plasma concentration, CPM-C 36",[1]; [15],0.698 ng/g
same,"plasma concentration, JH-C 73",[1]; [15],0.155 ng/g
same,"plasma concentration, JH-C 75",[1]; [15],0.474 ng/g
same,"plasma concentration, JH-C 82",[1]; [15],0.151 ng/g
same,"plasma concentration, CPM-C 01",[1]; [16],0.158 ng/g
same,"plasma concentration, CPM-C 2",[1]; [16],0.799 ng/g
same,"plasma concentration, CPM-C 20",[1]; [16],0.162 ng/g
same,"plasma concentration, JH-C 54",[1]; [16],0.159 ng/g
same,"plasma concentration, JH-C 74",[1]; [16],0.160 ng/g
same,"plasma concentration, JH-C 78",[1]; [16],0.252 ng/g
same,"plasma concentration, CPM wild-01",[1]; [17],1.37 ng/g
same,"plasma concentration, CPM wild-02",[1]; [17],0.188 ng/g
same,"plasma concentration, CPM wild-03",[1]; [17],0.157 ng/g
same,"plasma concentration, goldfish, this study (mean)",[1]; [17],0.57 ng/g wet weight or ng/mL for plasma
same,"wild goldfish plasma, range of concentrations",[1]; [17],0.15 to 1.1 ng/g
same,"BAFP, CPM2 goldfish caged",[6],38 L/kg
same,"plasma concentration, JH-BB","[2]; Brown Bullhead (Ameiurus nebulosus), in vivo",0.622 ng/g
same,concentration at 21 days,"[5]; caged goldfish plasma, range of concentrations",0.16 to 1.37 ng/g
same,concentration at 21 days,"[5]; plasma concentration, CPM1 caged",1.1 ng/g
same,concentration at 21 days,"[5]; plasma concentration, CPM2 caged",0.146 ng/g
same,concentration at 21 days,"[5]; plasma concentration, CPM3 caged",0.344 ng/g
same,concentration at 21 days,"[5]; plasma concentration, JH caged",< 0.3 ng/g
